Results reported in patent US20200093130A1, “APPLICATION OF TETRAHYDROBENZAZOLE IN PREPARATION OF AGRICULTURAL FUNGICIDE OR FUNGICIDE COMPOSITION AND PREPARATION METHOD THEREOF” (JIANGSU FREY AGROCHEMICALS CO., LTD, priority 2017, published 2020).
Read-outs that look alike come from different tables or passages of the source.

Legend:
Botrytis cinerea [1] = assay: In vitro fungicidal activity, growth rate method (Cucumber gray mold); format: cell-based; set-up: key: “—” means the activity is not obvious
Altemaria solani = assay: In vitro fungicidal activity, growth rate method (Tomato early blight); format: cell-based
Cercospora arachidicola = assay: In vitro fungicidal activity, growth rate method (Peanut brown spot); format: cell-based; set-up: key: “—” means the activity is not obvious
Botrytis cinerea [2] = assay: In vitro fungicidal activity, growth rate method (Strawberry grey mold); format: cell-based; set-up: key: “—” means the activity is not obvious
Alternaria kikuchiana = assay: In vitro fungicidal activity, growth rate method (Pear black spot); format: cell-based
[3] = system: Fusarium oxysporum f. sp cucumerinum; assay: In vitro fungicidal activity, growth rate method (Cucumber fusarium wilt); format: cell-based; set-up: key: “—” means the activity is not obvious
Rhizoctonia solani = assay: In vitro fungicidal activity, growth rate method (Rice sheath blight); format: cell-based
Pyricularia grisea = format: cell-based; settings: Rice blast
[4] = format: cell-based, Acinomycete spiculata; settings: Cucumber anthrax
Fusarium moniliforme = assay: In vitro fungicidal activity, growth rate method (Rice bakanae disease); format: cell-based; set-up: key: “—” means the activity is not obvious
[5] = system: Helminthosporium carposaprum; assay: In vitro fungicidal activity, growth rate method (Corn spot); format: cell-based
[6] = In vitro fungicidal activity, growth rate method (Colletotrichum capsici); format: cell-based, Acanthopteris fungi; settings: plant disease Colletotrichum capsici
[7] = system: Alternaria alternata (Fr.) Keissl; assay: In vitro fungicidal activity, growth rate method (Apple altermaria leaf spot); format: cell-based
Sclerotinia sclerotiorum [8] = assay: In vitro fungicidal activity, growth rate method (Chili sclerotium); format: cell-based
Mycosphaerella musicola = assay: In vitro fungicidal activity, growth rate method (Banana leaf spot disease); format: cell-based
[9] = system: Sinoe ampelina (de Bary) Shear; assay: In vitro fungicidal activity, growth rate method (Grape anthracnose); format: cell-based; set-up: key: “—” means the activity is not obvious
Botryosphaeria = assay: In vitro fungicidal activity, growth rate method (Apple ring spot); format: cell-based; set-up: key: “—” means the activity is not obvious
[10] = system: Sphaerotheca fuliginea (Schlecht) Poll.; assay: In vitro fungicidal activity, growth rate method (Cucumber powdery mildew); format: cell-based
Sclerotinia sclerotiorum [11] = assay: In vitro fungicidal activity, growth rate method (Cucumber sclerotinia rot); format: cell-based
Phytophthora = format: cell-based; settings: Potato late blight
Erysiphe = assay: In vitro fungicidal activity, growth rate method (Strawberry powdery mildew); format: cell-based

CC1COC(Cn2cnnc2)(c2ccc(Oc3ccc(Cl)cc3)cc2Cl)O1 (stereo not drawn) [Formula I, 4-((-(2-chloro-4-(4-chlorophenoxy)phenyl)-4-methyl-1,3-dioxapentan-2-yl)methyl)-4H-1,2,4-triazole]
Fungicidal activity (inhibition ratio %) (Botrytis cinerea [1]; 1 μg/mL): —
Fungicidal activity (inhibition ratio %) (Botrytis cinerea [1]; 5 μg/mL): —
Fungicidal activity (inhibition ratio %) (Botrytis cinerea [1]; 10 μg/mL): 5.10%
Fungicidal activity (inhibition ratio %) (Botrytis cinerea [1]; 15 μg/mL): 9.98%
Fungicidal activity (inhibition ratio %) (Botrytis cinerea [1]; 20 μg/mL): 21.26%
Fungicidal activity (inhibition ratio %) (Altemaria solani; 1 μg/mL): 13.20%
Fungicidal activity (inhibition ratio %) (Altemaria solani; 5 μg/mL): 52.88%
Fungicidal activity (inhibition ratio %) (Altemaria solani; 10 μg/mL): 67.29%
Fungicidal activity (inhibition ratio %) (Altemaria solani; 15 μg/mL): 77.88%
Fungicidal activity (inhibition ratio %) (Altemaria solani; 20 μg/mL): 85.86%
Fungicidal activity (inhibition ratio %) (Cercospora arachidicola; 1 μg/mL): —
Fungicidal activity (inhibition ratio %) (Cercospora arachidicola; 5 μg/mL): 19.71%
Fungicidal activity (inhibition ratio %) (Cercospora arachidicola; 10 μg/mL): 31.25%
Fungicidal activity (inhibition ratio %) (Cercospora arachidicola; 15 μg/mL): 39.48%
Fungicidal activity (inhibition ratio %) (Cercospora arachidicola; 20 μg/mL): 56.68%
Fungicidal activity (inhibition ratio %) (Botrytis cinerea [2]; 1 μg/mL): —
Fungicidal activity (inhibition ratio %) (Botrytis cinerea [2]; 5 μg/mL): —
Fungicidal activity (inhibition ratio %) (Botrytis cinerea [2]; 10 μg/mL): 7.12%
Fungicidal activity (inhibition ratio %) (Botrytis cinerea [2]; 15 μg/mL): 13.46%
Fungicidal activity (inhibition ratio %) (Botrytis cinerea [2]; 20 μg/mL): 29.22%
Fungicidal activity (inhibition ratio %) (Alternaria kikuchiana; 1 μg/mL): 29.98%
Fungicidal activity (inhibition ratio %) (Alternaria kikuchiana; 5 μg/mL): 35.76%
Fungicidal activity (inhibition ratio %) (Alternaria kikuchiana; 10 μg/mL): 46.61%
Fungicidal activity (inhibition ratio %) (Alternaria kikuchiana; 15 μg/mL): 59.78%
Fungicidal activity (inhibition ratio %) (Alternaria kikuchiana; 20 μg/mL): 67.44%
Fungicidal activity (inhibition ratio %) ([3]; 1 μg/mL): —
Fungicidal activity (inhibition ratio %) ([3]; 5 μg/mL): —
Fungicidal activity (inhibition ratio %) ([3]; 10 μg/mL): 18.32%
Fungicidal activity (inhibition ratio %) ([3]; 15 μg/mL): 31.77%
Fungicidal activity (inhibition ratio %) ([3]; 20 μg/mL): 48.18%
Fungicidal activity (inhibition ratio %) (Rhizoctonia solani; 1 μg/mL): 37.80%
Fungicidal activity (inhibition ratio %) (Rhizoctonia solani; 5 μg/mL): 52.79%
Fungicidal activity (inhibition ratio %) (Rhizoctonia solani; 10 μg/mL): 68.48%
Fungicidal activity (inhibition ratio %) (Rhizoctonia solani; 15 μg/mL): 72.82%
Fungicidal activity (inhibition ratio %) (Rhizoctonia solani; 20 μg/mL): 82.56%
Fungicidal activity (inhibition ratio %) (Pyricularia grisea; 1 μg/mL): 11.94%
Fungicidal activity (inhibition ratio %) (Pyricularia grisea; 5 μg/mL): 25.37%
Fungicidal activity (inhibition ratio %) (Pyricularia grisea; 10 μg/mL): 44.73%
Fungicidal activity (inhibition ratio %) (Pyricularia grisea; 15 μg/mL): 58.23%
Fungicidal activity (inhibition ratio %) (Pyricularia grisea; 20 μg/mL): 67.59%
Fungicidal activity (inhibition ratio %) ([4]; 1 μg/mL): 37.85%
Fungicidal activity (inhibition ratio %) ([4]; 5 μg/mL): 41.18%
Fungicidal activity (inhibition ratio %) ([4]; 10 μg/mL): 53.51%
Fungicidal activity (inhibition ratio %) ([4]; 15 μg/mL): 58.17%
Fungicidal activity (inhibition ratio %) ([4]; 20 μg/mL): 65.73%
Fungicidal activity (inhibition ratio %) (Fusarium moniliforme; 1 μg/mL): —
Fungicidal activity (inhibition ratio %) (Fusarium moniliforme; 5 μg/mL): 22.26%
Fungicidal activity (inhibition ratio %) (Fusarium moniliforme; 10 μg/mL): 36.71%
Fungicidal activity (inhibition ratio %) (Fusarium moniliforme; 15 μg/mL): 45.62%
Fungicidal activity (inhibition ratio %) (Fusarium moniliforme; 20 μg/mL): 61.79%
Fungicidal activity (inhibition ratio %) ([5]; 1 μg/mL): 8.92%
Fungicidal activity (inhibition ratio %) ([5]; 5 μg/mL): 22.44%
Fungicidal activity (inhibition ratio %) ([5]; 10 μg/mL): 33.45%
Fungicidal activity (inhibition ratio %) ([5]; 15 μg/mL): 44.46%
Fungicidal activity (inhibition ratio %) ([5]; 20 μg/mL): 53.22%
Fungicidal activity (inhibition ratio %) ([6]; 1 μg/mL): 28.70%
Fungicidal activity (inhibition ratio %) ([6]; 5 μg/mL): 47.29%
Fungicidal activity (inhibition ratio %) ([6]; 10 μg/mL): 53.59%
Fungicidal activity (inhibition ratio %) ([6]; 15 μg/mL): 68.32%
Fungicidal activity (inhibition ratio %) ([6]; 20 μg/mL): 78.96%
Fungicidal activity (inhibition ratio %) ([7]; 1 μg/mL): 26.94%
Fungicidal activity (inhibition ratio %) ([7]; 5 μg/mL): 34.48%
Fungicidal activity (inhibition ratio %) ([7]; 10 μg/mL): 52.31%
Fungicidal activity (inhibition ratio %) ([7]; 15 μg/mL): 66.71%
Fungicidal activity (inhibition ratio %) ([7]; 20 μg/mL): 74.65%
Fungicidal activity (inhibition ratio %) (Sclerotinia sclerotiorum [8]; 1 μg/mL): 12.81%
Fungicidal activity (inhibition ratio %) (Sclerotinia sclerotiorum [8]; 5 μg/mL): 17.96%
Fungicidal activity (inhibition ratio %) (Sclerotinia sclerotiorum [8]; 10 μg/mL): 25.35%
Fungicidal activity (inhibition ratio %) (Sclerotinia sclerotiorum [8]; 15 μg/mL): 39.34%
Fungicidal activity (inhibition ratio %) (Sclerotinia sclerotiorum [8]; 20 μg/mL): 55.18%
Fungicidal activity (inhibition ratio %) (Mycosphaerella musicola; 1 μg/mL): 25.26%
Fungicidal activity (inhibition ratio %) (Mycosphaerella musicola; 5 μg/mL): 31.30%
Fungicidal activity (inhibition ratio %) (Mycosphaerella musicola; 10 μg/mL): 43.35%
Fungicidal activity (inhibition ratio %) (Mycosphaerella musicola; 15 μg/mL): 52.11%
Fungicidal activity (inhibition ratio %) (Mycosphaerella musicola; 20 μg/mL): 66.76%
Fungicidal activity (inhibition ratio %) ([9]; 1 μg/mL): —
Fungicidal activity (inhibition ratio %) ([9]; 5 μg/mL): 25.12%
Fungicidal activity (inhibition ratio %) ([9]; 10 μg/mL): 42.04%
Fungicidal activity (inhibition ratio %) ([9]; 15 μg/mL): 52.93%
Fungicidal activity (inhibition ratio %) ([9]; 20 μg/mL): 65.18%
Fungicidal activity (inhibition ratio %) (Botryosphaeria; 1 μg/mL): —
Fungicidal activity (inhibition ratio %) (Botryosphaeria; 5 μg/mL): 41.28%
Fungicidal activity (inhibition ratio %) (Botryosphaeria; 10 μg/mL): 53.56%
Fungicidal activity (inhibition ratio %) (Botryosphaeria; 15 μg/mL): 68.76%
Fungicidal activity (inhibition ratio %) (Botryosphaeria; 20 μg/mL): 73.46%
Fungicidal activity (inhibition ratio %) ([10]; 1 μg/mL): 38.70%
Fungicidal activity (inhibition ratio %) ([10]; 5 μg/mL): 57.29%
Fungicidal activity (inhibition ratio %) ([10]; 10 μg/mL): 63.59%
Fungicidal activity (inhibition ratio %) ([10]; 15 μg/mL): 78.32%
Fungicidal activity (inhibition ratio %) ([10]; 20 μg/mL): 88.96%
Fungicidal activity (inhibition ratio %) (Sclerotinia sclerotiorum [11]; 1 μg/mL): 12.55%
Fungicidal activity (inhibition ratio %) (Sclerotinia sclerotiorum [11]; 5 μg/mL): 34.23%
Fungicidal activity (inhibition ratio %) (Sclerotinia sclerotiorum [11]; 10 μg/mL): 51.21%
Fungicidal activity (inhibition ratio %) (Sclerotinia sclerotiorum [11]; 15 μg/mL): 64.29%
Fungicidal activity (inhibition ratio %) (Sclerotinia sclerotiorum [11]; 20 μg/mL): 71.84%
Fungicidal activity (inhibition ratio %) (Phytophthora; 1 μg/mL): 27.03%
Fungicidal activity (inhibition ratio %) (Phytophthora; 5 μg/mL): 31.96%
Fungicidal activity (inhibition ratio %) (Phytophthora; 10 μg/mL): 43.44%
Fungicidal activity (inhibition ratio %) (Phytophthora; 15 μg/mL): 65.08%
Fungicidal activity (inhibition ratio %) (Phytophthora; 20 μg/mL): 73.63%
Fungicidal activity (inhibition ratio %) (Erysiphe; 1 μg/mL): 33.24%
Fungicidal activity (inhibition ratio %) (Erysiphe; 5 μg/mL): 54.62%
Fungicidal activity (inhibition ratio %) (Erysiphe; 10 μg/mL): 67.26%
Fungicidal activity (inhibition ratio %) (Erysiphe; 15 μg/mL): 76.09%
Fungicidal activity (inhibition ratio %) (Erysiphe; 20 μg/mL): 79.02%
